Measurements from patent publication US20220235073A1, “ARTEMISININ-DERIVATIVE N-HETEROCYCLIC CARBENE GOLD(I) HYBRID COMPLEXES” (CENTRE NATIONAL DE LA RECHERCHE SCIENTIFIQUE, priority 2019, published 2022).
pIC50: −log10 of the molar value. Like-named read-outs stand apart in the source and are kept apart here.

What was measured:
[1] = tested on: PC-3 human prostate cancer cells; experiment: Cell viability MTT assay, PC-3; format: cell-based; conditions: for GI50: 72 h, MTT assay; for pIC50: Table 3, tumor cell model
[2] = tested on: NIH3T3 murine fibroblast cells; experiment: Cell viability MTT assay, NIH3T3; format: cell-based; conditions: for GI50: 72 h, MTT assay; for Selectivity index NIH3T3: SI = GI50 (non-cancer cell line NIH3T3)/GI50 (cancer cell line PC-3); for pIC50: Table 3, non tumoral cell model, read-out: IC50 NIH3T3 (fibroblasts)
Method: (§1) HepG-2 human liver cancer cells were cultured in EMEM containing 10% of FBS, 1% of nonessential amino acids, 1 mM of Na-pyruvate, 1% of PenStrep antibiotics and 600 μg/mL of Geneticin. A549 human lung carcinoma cells, T24 human bladder carcinoma cells, MCF-7 human breast adenocarcinoma cells, U-2OS human osteosarcoma and NIH3T3 murine fibroblast cells were cultured in DMEM medium containing 10% fetal bovine serum and 1% antibiotics at 37° C. in 5% CO2 humidified incubators. MC3T3 mouse osteoblast cells were cultured in MEM medium containing 10% fetal bovine serum and 1% antibiotics at 37° C. in 5% CO2 humidified incubators. RWPE-1 human prostate normal cells were cultured in K-SFM medium containing 0.05 mg/ml bovine pituitary extract (BPE) and 5 ng/ml epidermal growth factor (EGF) at 37° C. in 5% CO2 humidified incubators. The MTT reagent (3-(4,5-dimethylthiazol-2-yl)-2,5-diphenyltetrazolium bromide) was used to determine cell death as originally described by Mosmaneland modified by Cuvillier et al.^[6] Briefly, cells were seeded 5,000 to 10,000 cells/well in 24-well plates depending on the cell type and allowed to attach overnight. All of the complexes were dissolved in DMSO. The concentration of the complexes was calculated according to the elemental composition of the complexes determined by the elemental analyses. Media in the presence of the tested complexes were added and serially diluted to various concentrations (from 5 μM to 0.01 μM). Next to these concentrations, for DHA 50, 20 and 10 μM and for the cationic bisNHC gold(I) complex 3 0.001 μM have been used. […] After 72 h of treatment, cells were incubated at 37° C. and 5% CO2 with 25 μL MTT solution (5 mg/mL; Sigma-Aldrich) in 24-well plates for approximately 3 to 4 h. After solubilization with 500 μL of lysis buffer (DMSO), formazan was quantified by spectrophotometry with a microplate reader at 570 nm absorbance. […] All the results were calculated from data obtained in three independent experiments.

[3] = tested on: MC3T3 mouse osteoblast cells; experiment: Cell viability MTT assay, MC3T3; format: cell-based; conditions: for GI50: 72 h, MTT assay; for Selectivity index MC3T3: SI = GI50 (MC3T3)/GI50 (PC-3); for pIC50: Table 3, non tumoral cell model, read-out: IC50 MC3-T3 (osteoblasts); for Specificity Bone: MC3-T3 (normal immortalized)/U2OS (tumoral): ratio of IC50, tumoral versus non tumoral cells of same tissue
Method: (§2) PC-3 human prostate cancer cells, and LAMA chronic myeloid leukemia were cultured in RPMI 1640 containing 10% fetal bovine serum and 1% antibiotics (100 U/mL penicillin and 100 μg/mL streotimycin) at 37° C. in 5% CO2 humidified incubators. HL60 […] were cultured in RPMI 1640 containing 15% fetal bovine serum and 1% antibiotics (100 U/mL penicillin and 100 μg/mL streotimycin) at 37° C. in 5% CO2 humidified incubators. HepG-2 human liver cancer cells were cultured in EMEM containing 10% of FBS, 1% of nonessential amino acids, 1 mM of Na-pyruvate, 1% of PenStrep antibiotics and 600 μg/mL of Geneticin. A549 human lung carcinoma cells, T24 human bladder carcinoma cells, MCF-7 human breast adenocarcinoma cells, U-2OS human osteosarcoma and NIH3T3 murine fibroblast cells were cultured in DMEM medium containing 10% fetal bovine serum and 1% antibiotics at 37° C. in 5% CO2 humidified incubators. MC3T3 mouse osteoblast cells were cultured in MEM medium containing 10% fetal bovine serum and 1% antibiotics at 37° C. in 5% CO2 humidified incubators. RWPE-1 human prostate normal cells were cultured in K-SFM medium containing 0.05 mg/ml bovine pituitary extract (BPE) and 5 ng/ml epidermal growth factor (EGF) at 37° C. in 5% CO2 humidified incubators. The MTT reagent (3-(4,5-dimethylthiazol-2-yl)-2,5-diphenyltetrazolium bromide) was used to determine cell death as originally described by Mosmaneland modified by Cuvillier et al.^[6] Briefly, cells were seeded 5,000 to 10,000 cells/well in 24-well plates depending on the cell type and allowed to attach overnight. All of the complexes were dissolved in DMSO. The concentration of the complexes was calculated according to the elemental composition of the complexes determined by the elemental analyses. Media in the presence of the tested complexes were added and serially diluted to various concentrations (from 5 μM to 0.01 μM). Next to these concentrations, for DHA 50, 20 and 10 μM and for the cationic bisNHC gold(I) complex 3 0.001 μM have been used. […] After 72 h of treatment, cells were incubated at 37° C. and 5% CO2 with 25 μL MTT solution (5 mg/mL; Sigma-Aldrich) in 24-well plates for approximately 3 to 4 h. After solubilization with 500 μL of lysis buffer (DMSO), formazan was quantified by spectrophotometry with a microplate reader at 570 nm absorbance. The GI50 values corresponding to the concentration that caused 50% inhibition of cell proliferation were calculated from dose-response curves obtained by nonlinear regression analysis (Prism 8, Graphpad Software). All the results were calculated from data obtained in three independent experiments.

[4] = tested on: RWPE-1 human prostate normal cells; experiment: Cell viability MTT assay, RWPE-1; format: cell-based; conditions: for GI50: 72 h, MTT assay; for Selectivity index RWPE-1: SI = GI50 (RWPE-1)/GI50 (PC-3); for pIC50: Table 3, non tumoral cell model, read-out: IC50 RWPE1 (prostatic epithelial cells); for Specificity Prostate: RWPE1 (normal immortalized)/PC-3 (tumoral): ratio of IC50, tumoral versus non tumoral cells of same tissue
Method: as §1

[5] = tested on: MCF-7 human breast adenocarcinoma cells; experiment: Cell viability MTT assay, MCF-7; format: cell-based; conditions: for GI50: 72 h, MTT assay; for pIC50: Table 3, tumor cell model
Method: as §2

[6] = tested on: T24 human bladder carcinoma cells; experiment: Cell viability MTT assay, T24; format: cell-based; conditions: for GI50: 72 h, MTT assay; for pIC50: Table 3, tumor cell model
Method: as §2

U-2OS human osteosarcoma = experiment: Cell viability MTT assay, U-2OS; format: cell-based; conditions: for GI50: 72 h, MTT assay; for pIC50: Table 3, tumor cell model, read-out: IC50 U2OS (bone tumor)
Method: as §2

[7] = tested on: HL60 (acute myeloid leukemia); experiment: Cell viability MTT assay, HL60; format: cell-based; conditions: for GI50: 72 h, MTT assay; for pIC50: Table 3, tumor cell model
Method: as §2

[8] = tested on: Non tumoral cell models (MC3-T3, NIH3T3, RWPE1); experiment: MTT assay, mean over non tumoral cell models; format: cell-based; conditions: mean of MC3-T3, NIH3T3, RWPE1
Method: PC-3 human prostate cancer cells, and LAMA chronic myeloid leukemia were cultured in RPMI 1640 containing 10% fetal bovine serum and 1% antibiotics (100 U/mL penicillin and 100 μg/mL streotimycin) at 37° C. in 5% CO2 humidified incubators. HL60 […] were cultured in RPMI 1640 containing 15% fetal bovine serum and 1% antibiotics (100 U/mL penicillin and 100 μg/mL streotimycin) at 37° C. in 5% CO2 humidified incubators. HepG-2 human liver cancer cells were cultured in EMEM containing 10% of FBS, 1% of nonessential amino acids, 1 mM of Na-pyruvate, 1% of PenStrep antibiotics and 600 μg/mL of Geneticin. A549 human lung carcinoma cells, T24 human bladder carcinoma cells, MCF-7 human breast adenocarcinoma cells, U-2OS human osteosarcoma and NIH3T3 murine fibroblast cells were cultured in DMEM medium containing 10% fetal bovine serum and 1% antibiotics at 37° C. in 5% CO2 humidified incubators. MC3T3 mouse osteoblast cells were cultured in MEM medium containing 10% fetal bovine serum and 1% antibiotics at 37° C. in 5% CO2 humidified incubators. RWPE-1 human prostate normal cells were cultured in K-SFM medium containing 0.05 mg/ml bovine pituitary extract (BPE) and 5 ng/ml epidermal growth factor (EGF) at 37° C. in 5% CO2 humidified incubators. The MTT reagent (3-(4,5-dimethylthiazol-2-yl)-2,5-diphenyltetrazolium bromide) was used to determine cell death as originally described by Mosmaneland modified by Cuvillier et al.^[6] Briefly, cells were seeded 5,000 to 10,000 cells/well in 24-well plates depending on the cell type and allowed to attach overnight. All of the complexes were dissolved in DMSO. The concentration of the complexes was calculated according to the elemental composition of the complexes determined by the elemental analyses. […] After solubilization with 500 μL of lysis buffer (DMSO), formazan was quantified by spectrophotometry with a microplate reader at 570 nm absorbance. […] All the results were calculated from data obtained in three independent experiments.

[9] = tested on: NF-κB transcription factor induced by TNFalpha; experiment: NF-kB transcriptional activity, NF-kB Reporter (Luc)-A549 stable cell line; format: cell-based, human; conditions: NF-kB Reporter A549 cells, 1 ng/ml TNFα, 7 hours, read-out: IC50, inhibition of NF-κB transcription factor induced by TNFalpha
Method: The NF-kB Reporter (Luc)—A549 Stable Cell Line was used to quantify the inhibitory effects of the indicated doses of the molecules of the invention on transcriptional activity of NF-kB activated by 1 ng/ml TNFα (7 hours of treatment).
Luminescence was read using a luminometer and readings were normalized to wells that only contain media to obtain the Relative Luminescence Units (RLUs).
9. NF-kB Transcriptional Activity

CC(=O)OC[C@H]1O[C@@H]([S-])[C@H](OC(C)=O)[C@@H](OC(C)=O)[C@@H]1OC(C)=O.CCP(CC)CC.[Au+] [Auranofin]
GI50 [1]: 1090 nM | pIC50 [1]: 5.96 | GI50 [2]: 1100 nM | Selectivity index NIH3T3 [2]: 1.0 | pIC50 [2]: 5.96 | GI50 [3]: 1390 nM | Selectivity index MC3T3 [3]: 1.2 | pIC50 [3]: 5.86 | Specificity Bone: MC3-T3 (normal immortalized)/U2OS (tumoral) [3]: 2.9 | GI50 [4]: 84 nM | Selectivity index RWPE-1 [4]: 0.1 | pIC50 [4]: 7.08 | Specificity Prostate: RWPE1 (normal immortalized)/PC-3 (tumoral) [4]: 0.1 | GI50 [5]: 1390 nM | pIC50 [5]: 5.86 | GI50 [6]: 1100 nM | pIC50 [6]: 5.96 | GI50 (U-2OS human osteosarcoma; read-out: GI50 U2OS): 470 nM | pIC50 (U-2OS human osteosarcoma): 6.32 | GI50 [7]: 950 nM | pIC50 [7]: 6.02 | pIC50 [8]: 6.07 | pIC50 [9]: 5.53

C[C@H]1[C@@H](O)O[C@@H]2O[C@]3(C)CC[C@H]4[C@H](C)CC[C@@H]1[C@@]24OO3 [DHA, dihydroartemisinin]
GI50 ([1]; Homo sapiens): 1560 nM | pIC50 ([1]; Homo sapiens): 5.81 | GI50 ([2]; Mus musculus, NIH3T3): 3860 nM | pIC50 ([2]; Mus musculus, NIH3T3): 5.41 | Selectivity index NIH3T3 [2]: 2.5 | GI50 ([3]; Mus musculus, Osteoblast): 3550 nM | pIC50 ([3]; Mus musculus, Osteoblast): 5.45 | Selectivity index MC3T3 [3]: 2.3 | Specificity Bone: MC3-T3 (normal immortalized)/U2OS (tumoral) [3]: 0.9 | GI50 ([4]; Homo sapiens, RWPE-1): 9680 nM | pIC50 ([4]; Homo sapiens, RWPE-1): 5.01 | Selectivity index RWPE-1 [4]: 6.2 | Specificity Prostate: RWPE1 (normal immortalized)/PC-3 (tumoral) [4]: 6.2 | GI50 ([5]; Homo sapiens, MCF7): 9670 nM | pIC50 ([5]; Homo sapiens, MCF7): 5.01 | GI50 ([6]; Homo sapiens): 4990 nM | pIC50 ([6]; Homo sapiens): 5.30 | GI50 (U-2OS human osteosarcoma; Homo sapiens, U2OS): 4100 nM | pIC50 (U-2OS human osteosarcoma; Homo sapiens, U2OS): 5.39 | GI50 ([7]; Homo sapiens, HL-60): 25000 nM | pIC50 ([7]; Homo sapiens, HL-60): 5.49 | pIC50 [8]: 5.24 | pIC50 ([9]; Homo sapiens): 5.05
